Test system: luciferase gene expression in HEK 293 cells in response to Comp. 004
Assay: Screen of riboswitch constructs with 12C6-1 variant aptamers (libraries N1-N5) against Comp. 004, luciferase in HEK 293 cells
Format: cell-based, human
Conditions: library N1 (J2-4), HEK 293, 25 M [sic] Comp. 004
Text: Cloning of riboswitch constructs containing 12C6-1 variant aptamer sequences: 12C6-1 aptamer sequence was used as template, and nucleobases were randomized at certain position in the sequence. Aptamers incorporating random mutagenesis were synthesized by Integrated DNA Technologies, Inc. Golden Gate cloning strategy (New England Biolabs, NEB) was used to clone the synthesized aptamer sequences into intron-exon-intron cassette to replace the 12C6-1 aptamer in the Luci-12C6-1 riboswitch construct, generating riboswitch constructs containing variant aptamer sequences.
To further improve the riboswitch activity in responding to Comp. 004 and related compounds, the aptamer sequence 12C6-1 was subject to mutagenesis to generate aptamer variants, and the riboswitches containing the variant aptamers were screened against Comp. 004 for the ones that have improved dynamic range of induced gene expression (the fold induction), in comparison with the fold induction by parental riboswitch construct Luci-12C6-1. […] These loop or junction region alone or together with stem region in proximity were chosen for random mutagenesis to generate riboswitches with re-engineered aptamer sequences with improved activity.
Five aptamer libraries N1, N2, N3, N4 and N5 were generated by randomizing nucleotides at positions in J2-4, J2-3/J3-3a/J3a-2/P3, L3a, J4-5/J5-4/P4 and L5 regions of the parent 12C6-1 sequence, respectively (see FIGS. 3a and 3b). Single bacterial colonies were picked and plasmids containing variant riboswitch constructs were screened in HEK 293 cells for improved gene regulation activity in response to 25 µM Comp. 004 as compared to parent riboswitch construct Luci-12C6-1.

First: N1_2D1 (CTGGGGAGTCCTTCATGCGGGGC; chemistry not given here)
Second: N1_2D2 (CTGGGGAGTCCTTCATGCGGGGC; chemistry not given here)
The “Fold (induction of luciferase gene expression)” value (shortened to “Fold”) of the first is lower: 4.38 fold for the first, 102.23 fold for the second.

Going from “N1_2D3 (CTGGGGAGTCCTTCATGCGGGGC; chemistry not given here)” to “N1_2D5 (CTGGGGAGTCCTTCATGCGGGGC; chemistry not given here)”, the “Fold” value rises from 5.40 fold to 35.71 fold.

First: N1_2D6 (CTGGGGAGTCCTTCATGCGGGGC; chemistry not given here)
Second: N1_2D7 (CTGGGGAGTCCTTCATGCGGGGC; chemistry not given here)
The “Fold” value of the first is higher: 13.57 fold for the first, 2.16 fold for the second.

First: N1_2D9 (CTGGGGAGTCCTTCATGCGGGGC; chemistry not given here)
Second: N1_2D10 (CTGGGGAGTCCTTCATGCGGGGC; chemistry not given here)
The “Fold” value of the first is lower: 9.74 fold for the first, 15.53 fold for the second.

First: N1_2D11 (CTGGGGAGTCCTTCATGCGGGGC; chemistry not given here)
Second: N1_2D12 (CTGGGGAGTCCTTCATGCGGGGC; chemistry not given here)
The “Fold” value of the first is lower: 1.96 fold for the first, 3.26 fold for the second.

Compared with “N1_2E2 (CTGGGGAGTCCTTCATGCGGGGC; chemistry not given here)”, “N1_2E3 (CTGGGGAGTCCTTCATGCGGGGC; chemistry not given here)” is lower in “Fold” value: 7.86 fold for the first, 5.79 fold for the second.

Compared with “N1_2E4 (CTGGGGAGTCCTTCATGCGGGGC; chemistry not given here)”, “N1_2E5 (CTGGGGAGTCCTTCATGCGGGGC; chemistry not given here)” is higher in “Fold” value: 10.44 fold for the first, 35.05 fold for the second.

First: N1_2E6 (CTGGGGAGTCCTTCATGCGGGGC; chemistry not given here)
Second: N1_2E7 (CTGGGGAGTCCTTCATGCGGGGC; chemistry not given here)
The “Fold” value of the first is higher: 30.39 fold for the first, 19.91 fold for the second.

Compared with “N1_2E8 (CTGGGGAGTCCTTCATGCGGGGC; chemistry not given here)”, “N1_2E9 (CTGGGGAGTCCTTCATGCGGGGC; chemistry not given here)” is higher in “Fold” value: 5.81 fold for the first, 11.27 fold for the second.

Going from “N1_2E10 (CTGGGGAGTCCTTCATGCGGGGC; chemistry not given here)” to “N1_2E11 (CTGGGGAGTCCTTCATGCGGGGC; chemistry not given here)”, the “Fold” value rises from 2.86 fold to 15.45 fold.

First: N1_2F1 (CTGGGGAGTCCTTCATGCGGGGC; chemistry not given here)
Second: N1_2F3 (CTGGGGAGTCCTTCATGCGGGGC; chemistry not given here)
The “Fold” value of the first is lower: 8.34 fold for the first, 15.56 fold for the second.

Going from “N1_2F4 (CTGGGGAGTCCTTCATGCGGGGC; chemistry not given here)” to “N1_2F6 (CTGGGGAGTCCTTCATGCGGGGC; chemistry not given here)”, the “Fold” value rises from 4.74 fold to 185.92 fold.

Going from “N1_2F7 (CTGGGGAGTCCTTCATGCGGGGC; chemistry not given here)” to “N1_2F9 (CTGGGGAGTCCTTCATGCGGGGC; chemistry not given here)”, the “Fold” value falls from 41.88 fold to 1.71 fold.

Compared with “N1_2F10 (CTGGGGAGTCCTTCATGCGGGGC; chemistry not given here)”, “N1_2F11 (CTGGGGAGTCCTTCATGCGGGGC; chemistry not given here)” is higher in “Fold” value: 10.84 fold for the first, 150.18 fold for the second.

Going from “N1_2F12 (CTGGGGAGTCCTTCATGCGGGGC; chemistry not given here)” to “N1_2G1 (CTGGGGAGTCCTTCATGCGGGGC; chemistry not given here)”, the “Fold” value rises from 1.83 fold to 100.11 fold.

Compared with “N1_2G3 (CTGGGGAGTCCTTCATGCGGGGC; chemistry not given here)”, “N1_2G4 (CTGGGGAGTCCTTCATGCGGGGC; chemistry not given here)” is lower in “Fold” value: 36.58 fold for the first, 9.06 fold for the second.

First: N1_2G6 (CTGGGGAGTCCTTCATGCGGGGC; chemistry not given here)
Second: N1_2G7 (CTGGGGAGTCCTTCATGCGGGGC; chemistry not given here)
The “Fold” value of the first is higher: 11.00 fold for the first, 2.06 fold for the second.

Compared with “N1_2G8 (CTGGGGAGTCCTTCATGCGGGGC; chemistry not given here)”, “N1_2G9 (CTGGGGAGTCCTTCATGCGGGGC; chemistry not given here)” is higher in “Fold” value: 8.46 fold for the first, 30.93 fold for the second.

First: N1_2G10 (CTGGGGAGTCCTTCATGCGGGGC; chemistry not given here)
Second: N1_2H1 (CTGGGGAGTCCTTCATGCGGGGC; chemistry not given here)
The “Fold” value of the first is lower: 4.40 fold for the first, 9.41 fold for the second.

First: N1_2H2 (CTGGGGAGTCCTTCATGCGGGGC; chemistry not given here)
Second: N1_2H5 (CTGGGGAGTCCTTCATGCGGGGC; chemistry not given here)
The “Fold” value of the first is higher: 2.85 fold for the first, 1.62 fold for the second.

Going from “N1_2H7 (CTGGGGAGTCCTTCATGCGGGGC; chemistry not given here)” to “N1_2H8 (CTGGGGAGTCCTTCATGCGGGGC; chemistry not given here)”, the “Fold” value rises from 1.16 fold to 1.45 fold.

First: N1_2H9 (CTGGGGAGTCCTTCATGCGGGGC; chemistry not given here)
Second: N1_2H10 (CTGGGGAGTCCTTCATGCGGGGC; chemistry not given here)
The “Fold” value of the first is lower: 1.91 fold for the first, 16.82 fold for the second.

In the case of “N1_2H11 (CTGGGGAGTCCTTCATGCGGGGC; chemistry not given here)”, the “Fold” value is reported as 2.83 fold.

Same assay, conditions: library N2 variant aptamers (J2-3, P3-J3-3a, J3a-2 randomized) of 12C6-1 in riboswitch constructs; in response to Comp. 004; HEK 293 cells

Compared with “N2_2A1 (CTGGGGAGTCCTTCATGC; chemistry not given here)”, “N2_2A2 (CTGGGGAGTCCTTCATGC; chemistry not given here)” is lower in “Fold” value: 1.0 fold for the first, 0.7 fold for the second.

First: N2_2A3 (CTGGGGAGTCCTTCATGC; chemistry not given here)
Second: N2_2A5 (CTGGGGAGTCCTTCATGC; chemistry not given here)
The “Fold” value of the first is lower: 0.8 fold for the first, 1.0 fold for the second.

Going from “N2_2A6 (CTGGGGAGTCCTTCATGC; chemistry not given here)” to “N2_2A7 (CTGGGGAGTCCTTCATGC; chemistry not given here)”, the “Fold” value falls from 1.2 fold to 0.9 fold.

First: N2_2A8 (CTGGGGAGTCCTTCATGC; chemistry not given here)
Second: N2_2A9 (CTGGGGAGTCCTTCATGC; chemistry not given here)
The “Fold” value of the first is lower: 1.0 fold for the first, 1.1 fold for the second.

“N2_2A10 (CTGGGGAGTCCTTCATGC; chemistry not given here)” and “N2_2A11 (CTGGGGAGTCCTTCATGC; chemistry not given here)” are the same in “Fold” value: 1.1 fold for the first, 1.1 fold for the second.

First: N2_2A12 (CTGGGGAGTCCTTCATGC; chemistry not given here)
Second: N2_2B1 (CTGGGGAGTCCTTCATGC; chemistry not given here)
The “Fold” value of the first is higher: 1.1 fold for the first, 1.0 fold for the second.

First: N2_2B3 (CTGGGGAGTCCTTCATGC; chemistry not given here)
Second: N2_2B4 (CTGGGGAGTCCTTCATGC; chemistry not given here)
The “Fold” value of the first is higher: 1.2 fold for the first, 0.8 fold for the second.

Compared with “N2_2B5 (CTGGGGAGTCCTTCATGC; chemistry not given here)”, “N2_2B6 (CTGGGGAGTCCTTCATGC; chemistry not given here)” is lower in “Fold” value: 1.0 fold for the first, 0.8 fold for the second.

Compared with “N2_2B7 (CTGGGGAGTCCTTCATGC; chemistry not given here)”, “N2_2B8 (CTGGGGAGTCCTTCATGC; chemistry not given here)” is lower in “Fold” value: 1.2 fold for the first, 1.1 fold for the second.

“N2_2B9 (CTGGGGAGTCCTTCATGC; chemistry not given here)” and “N2_2B10 (CTGGGGAGTCCTTCATGC; chemistry not given here)” are the same in “Fold” value: 1.1 fold for the first, 1.1 fold for the second.

First: N2_2B11 (CTGGGGAGTCCTTCATGC; chemistry not given here)
Second: N2_2B12 (CTGGGGAGTCCTTCATGC; chemistry not given here)
The “Fold” value of the first is higher: 1.2 fold for the first, 1.0 fold for the second.

From patent US20250101436A1, “APTAMERS AND SMALL MOLECULE LIGANDS” (MeiraGTx UK II Limited, priority 2021, published 2025)
